Results reported in the NIST ThermoML archive (doi:10.1021/acs.jced.8b00037).

Assay: molar heat capacity at constant volume
Conditions: Liquid, Vacuum adiabatic calorimetry

COC [dimethyl ether]
Conditions | molar heat capacity at constant volume [J/K/mol]
157.53 K, 4013 kPa | 69.69
159.72 K, 8322 kPa | 69.6
161.9 K, 12544 kPa | 69.78
164.07 K, 16672 kPa | 69.67
166.23 K, 20708 kPa | 69.85
168.38 K, 24704 kPa | 69.65
170.51 K, 28650 kPa | 69.79
172.64 K, 32529 kPa | 70.05
176.39 K, 3776 kPa | 68.85
178.57 K, 7593 kPa | 68.76
180.74 K, 11350 kPa | 68.76
182.9 K, 15062 kPa | 68.62
185.05 K, 18718 kPa | 68.78
187.2 K, 22325 kPa | 68.84
189.34 K, 25885 kPa | 68.95
191.46 K, 29382 kPa | 69
193.58 K, 32823 kPa | 69.21
200.6 K, 3313 kPa | 68.02
202.77 K, 6569 kPa | 67.99
204.93 K, 9792 kPa | 67.7
207.08 K, 12969 kPa | 68.02
209.23 K, 16115 kPa | 68
211.37 K, 19219 kPa | 68.42
213.5 K, 22288 kPa | 68.53
215.62 K, 25311 kPa | 68.58
217.74 K, 28297 kPa | 69.12
219.85 K, 31246 kPa | 69
223.34 K, 2896 kPa | 67.94
225.51 K, 5714 kPa | 67.91
227.67 K, 8494 kPa | 68.08
229.82 K, 11254 kPa | 68.44
231.97 K, 13976 kPa | 68.41
234.11 K, 16676 kPa | 68.64
236.24 K, 19342 kPa | 68.9
238.36 K, 21979 kPa | 68.71
240.48 K, 24585 kPa | 68.77
242.59 K, 27158 kPa | 69.15
244.69 K, 29702 kPa | 69.45
245.08 K, 2602 kPa | 68.32
246.78 K, 32213 kPa | 69.76
247.24 K, 5030 kPa | 68.61
249.4 K, 7443 kPa | 68.82
251.55 K, 9828 kPa | 69.15
253.7 K, 12195 kPa | 69.1
255.84 K, 14539 kPa | 69.14
257.97 K, 16865 kPa | 69.11
260.09 K, 19157 kPa | 69.43
261.13 K, 2479 kPa | 69.34
262.21 K, 21436 kPa | 69.63
263.3 K, 4661 kPa | 69.49
264.32 K, 23690 kPa | 69.84
265.47 K, 6829 kPa | 69.28
266.43 K, 25920 kPa | 69.92
267.63 K, 8973 kPa | 69.82
268.52 K, 28128 kPa | 69.96
269.79 K, 11103 kPa | 69.61
270.62 K, 30316 kPa | 69.95
271.93 K, 13210 kPa | 69.63
272.69 K, 32476 kPa | 70.7
274.07 K, 15304 kPa | 70.14
276.21 K, 17379 kPa | 70.25
278.33 K, 19435 kPa | 70.27
279.17 K, 2674 kPa | 69.72
280.45 K, 21472 kPa | 70.38
281.36 K, 4596 kPa | 69.98
282.56 K, 23487 kPa | 70.94
283.54 K, 6506 kPa | 69.97
284.67 K, 25491 kPa | 70.96
285.71 K, 8399 kPa | 70.42
286.77 K, 27476 kPa | 70.72
287.87 K, 10279 kPa | 70.77
288.86 K, 29439 kPa | 71.64
290.03 K, 12145 kPa | 71.02
290.95 K, 31396 kPa | 71.89
292.18 K, 14000 kPa | 71.24
293.04 K, 33333 kPa | 71.85
294.33 K, 15843 kPa | 71.24
296.47 K, 17674 kPa | 70.96
298.61 K, 19489 kPa | 71.48
300.73 K, 2646 kPa | 71.27
300.75 K, 21296 kPa | 71.95
302.88 K, 23091 kPa | 71.44
302.96 K, 4292 kPa | 71.08
305.01 K, 24872 kPa | 71.85
305.18 K, 5930 kPa | 71.96
307.14 K, 26644 kPa | 72.77
307.41 K, 7569 kPa | 72.11
309.27 K, 28409 kPa | 73.16
309.62 K, 9196 kPa | 71.88
311.39 K, 30163 kPa | 72.97
311.84 K, 10814 kPa | 72.56
313.52 K, 31911 kPa | 73.2
314.06 K, 12436 kPa | 72.39
315.65 K, 33651 kPa | 73
316.28 K, 14048 kPa | 72.58
318.5 K, 15656 kPa | 72.87
320.54 K, 2597 kPa | 72.71
320.74 K, 17265 kPa | 73.03
322.97 K, 18872 kPa | 73.22
323.02 K, 4128 kPa | 72.98
325.22 K, 20482 kPa | 73.26
325.5 K, 5662 kPa | 73.54
327.49 K, 22098 kPa | 73.84
328.01 K, 7206 kPa | 73.45
329.78 K, 23723 kPa | 73.46
330.53 K, 8756 kPa | 73.25
332.09 K, 25355 kPa | 73.79
333.07 K, 10311 kPa | 73.52
334.44 K, 27002 kPa | 74.11
335.63 K, 11877 kPa | 73.69
336.81 K, 28665 kPa | 74.55
338.21 K, 13448 kPa | 74.18
339.21 K, 30343 kPa | 75.43
340.82 K, 15034 kPa | 74.59
341.66 K, 32044 kPa | 75.07
343.45 K, 16629 kPa | 74.42
344.14 K, 33761 kPa | 74.99
